Data taken from patent publication US5770617A, “Terbenzimidazoles useful as antifungal agents” (Rutgers, The State University of New Jersey, priority 1997, dated 1998).
Entries after “also recorded” stand apart in the source; their conditions may differ.

Target: T1, Aspergillus topoisomerase I (Aspergillus nidulans, UniProt Q5BGS7)
T1 construct: about 105 kDa by phosphate transfer
T1 sequence (Q5BGS7 1-871): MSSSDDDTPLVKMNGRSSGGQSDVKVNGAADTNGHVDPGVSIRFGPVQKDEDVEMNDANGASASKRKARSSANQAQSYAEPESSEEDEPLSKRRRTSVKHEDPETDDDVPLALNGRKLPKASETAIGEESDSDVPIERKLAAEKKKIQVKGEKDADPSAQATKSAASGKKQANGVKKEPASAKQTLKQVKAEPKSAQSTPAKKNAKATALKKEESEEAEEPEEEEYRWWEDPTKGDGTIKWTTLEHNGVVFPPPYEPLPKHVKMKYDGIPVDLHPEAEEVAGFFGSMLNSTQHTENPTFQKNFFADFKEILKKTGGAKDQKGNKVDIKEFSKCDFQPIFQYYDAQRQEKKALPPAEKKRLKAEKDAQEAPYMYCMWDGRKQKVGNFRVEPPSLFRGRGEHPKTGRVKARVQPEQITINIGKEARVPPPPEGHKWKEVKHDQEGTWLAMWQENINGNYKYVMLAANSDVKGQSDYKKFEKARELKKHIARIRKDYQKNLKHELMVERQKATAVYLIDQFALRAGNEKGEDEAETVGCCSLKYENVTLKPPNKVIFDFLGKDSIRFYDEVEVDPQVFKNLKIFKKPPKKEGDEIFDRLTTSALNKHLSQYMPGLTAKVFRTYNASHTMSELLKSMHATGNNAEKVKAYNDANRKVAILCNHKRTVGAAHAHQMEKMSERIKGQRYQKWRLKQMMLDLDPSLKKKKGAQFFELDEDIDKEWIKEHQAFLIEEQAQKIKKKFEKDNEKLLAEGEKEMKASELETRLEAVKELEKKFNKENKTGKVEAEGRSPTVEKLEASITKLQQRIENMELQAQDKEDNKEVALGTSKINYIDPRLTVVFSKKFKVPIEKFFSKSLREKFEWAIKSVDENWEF
Assay: Topoisomerase I cleavage assay, Aspergillus enzyme
Type: biochemical
Conditions: for inhibition (poisoning) of Aspergillus topoisomerase I, in words: DNA cleavage assay; for concentration at which extensive DNA cleavage was observed: DNA cleavage with Aspergillus topoisomerase I; for sensitivity of Aspergillus versus human topoisomerase I: cleavage assay, Aspergillus 60 units/reaction, human 150 units/reaction

SMILES | inhibition (poisoning) of Aspergillus topoisomerase I, in words (listed as Ho33342) | concentration at which extensive DNA cleavage was observed | topoisomerase I-mediated DNA cleavage at the highest concentration (Ho33342 10 mg/ml) | inhibition (poisoning) of Aspergillus topoisomerase I, in words | sensitivity of Aspergillus versus human topoisomerase I | sensitivity of Aspergillus versus human topoisomerase I (listed as CPT)
CCOc1ccc(-c2nc3cc(-c4nc5cc(N6CCN(C)CC6)ccc5[nH]4)ccc3[nH]2)cc1 [Hoechst 33342, 2'-(4-ethoxyphenyl)-5-(4-methyl-1-piperazinyl)-2,5'-bi-1H-benzimidazole] | potent inhibitors; also recorded: selective sensitivity; also recorded: sensitive | ≤ 0.1 mg/mL | dramatically inhibited | – | – | –
CC[C@@]1(O)C(=O)OCc2c1cc1n(c2=O)Cc2cc3ccccc3nc2-1 [camptothecin] | – | ≤ 1.0 mg/mL | – | potent inhibitors; also recorded: sensitive | less active against the Aspergillus than the human enzyme | less sensitive to CPT than the human enzyme
c1ccc(-c2ccc3[nH]c(-c4ccc5[nH]c(-c6ccc7[nH]cnc7c6)nc5c4)nc3c2)cc1 [Compound 13, 5-Phenyl-2-[2'(benzimidazol-5"-yl)benzimidazol-5'-yl]benzimidazole] | – | – | – | strongly inhibited (poisoned); also recorded: sensitive | substantially more sensitive | –
N#Cc1ccc2[nH]c(-c3ccc4[nH]c(-c5ccc6[nH]cnc6c5)nc4c3)nc2c1 [Compound 11, 5-Cyano-2-[2'-(benzimidazol-5"-yl)benzimidazol-5'-yl]benzimidazole] | – | – | – | strongly inhibited (poisoned); also recorded: sensitive | more active against the Aspergillus than the human enzyme | –
